Test results from publication doi:10.1101/2020.01.28.923938v1 (biorxiv, 2020).

Target: CYP2D6 (Homo sapiens, UniProt P10635)
Assay: in situ kinetics of dextrorphan formation in HLM, ADE-OPI-MS
Type: biochemical

Chain of CYP2D6 (P10635 whole entry): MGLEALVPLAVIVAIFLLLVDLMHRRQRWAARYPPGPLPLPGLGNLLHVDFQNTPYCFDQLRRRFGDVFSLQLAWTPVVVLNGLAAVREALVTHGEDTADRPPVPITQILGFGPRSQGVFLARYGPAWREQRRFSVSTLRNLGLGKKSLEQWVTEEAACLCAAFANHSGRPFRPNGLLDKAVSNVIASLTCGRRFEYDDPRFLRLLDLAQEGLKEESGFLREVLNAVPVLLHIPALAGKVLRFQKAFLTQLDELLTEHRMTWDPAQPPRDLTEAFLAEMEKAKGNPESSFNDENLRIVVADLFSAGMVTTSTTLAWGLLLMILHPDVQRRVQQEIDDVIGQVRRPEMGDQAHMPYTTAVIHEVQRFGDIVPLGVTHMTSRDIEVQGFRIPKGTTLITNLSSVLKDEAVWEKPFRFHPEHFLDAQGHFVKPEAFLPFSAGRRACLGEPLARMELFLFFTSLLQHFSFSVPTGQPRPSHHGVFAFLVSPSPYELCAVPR

`COc1ccc2c(c1)[C@]13CCCC[C@@H]1[C@H](C2)N(C)CC3` [dextromethorphan] gave a Km of 3.79 µM.
